For this experiment, the system named is cardiomyocytes. The experiment is described as follows: live cell imaging of changes in cell areas after stimulation (FIG. 17A). In kind it is cell-based. To be noted: for changes in cell areas vs Ctrl: after 9 h, Ctrl vs PE/Ins; for early dynamics of cell area: early dynamics (<2.5 h), compared with ctrl (no increase). As for the experimental part:
Image acquisition can be performed with a microscope. Preferably, this is performed at the end of the experiment. In other embodiments, the image acquisition is performed during the course of the experiment to analyze the cell response over time (video, live cell imaging).
In order to perform time series analysis, imaging of cells can happen multiple times with live cell fluorescent dyes. This allows visualizing the dynamics of cell morphological changes over time. Experiments have shown that certain dynamics leads to a characteristic set of meta-features associated with certain diagnoses, prognoses, and/or individualized therapy.

With `CNC[C@H](O)c1cccc(O)c1` [PE, phenylephrine], the “changes in cell areas vs Ctrl” value was “differences following stimulation can be observed” and the “early dynamics of cell area” value is “steep increase”.
Taken in the same sequence, the figures for insulin were “differences following stimulation can be observed” and “less steep increase”.
